# Patent US8129534B2, “Chemical compounds” (priority 2004, dated 2012)
row,melting point,SMILES
1,69 to 70 °C,O=C(Nc1ccnn1C1CCN(C/C=C/c2ccc(Cl)cc2)CC1)c1ccnc(Cl)c1
2,78 to 80 °C,O=C(Nc1cccnc1C1CCN(C/C=C/c2ccc(Cl)cc2)CC1)c1ccnc(Cl)c1
3,75 to 77 °C,O=C(Nc1cccnc1C1=CCN(C/C=C/c2ccc(Cl)cc2)CC1)c1ccnc(Cl)c1
